Where two headings read alike, the source gives them in different places.
Assays:
[1] = system: RNA Polymerase II Serine 5 phosphorylation (Rpb1 CTD, downstream substrate of CDK7) in A549 cells; assay: Imaging-based cellular RNA PolII Ser5 phosphorylation assay in A549 cells; format: cell-based, human; conditions: Homo sapiens, A549, A549 cells, wild-type CDK7; RNA PolII Ser5 phosphorylation; averaged over all measurements; read-out: CDK7_A549 Wild-type CDK7 (pIC50) (converted)
In short: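 IC50 derived by fitting % control (DMSO high, 10 μM reference low) against concentration, with Hill slope. Readout: high-content imaging of phospho-Ser5 Rpb1 CTD antibody staining in fixed, permeabilized A549 cells exposed to compound 3 h after 20 h culture in 1% FBS DMEM.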

[2] = system: RNA Polymerase II Serine 5 phosphorylation in A549 cells overexpressing CDK7-mutant (C312S); assay: Imaging-based cellular RNA PolII Ser5 phosphorylation assay in A549 cells overexpressing CDK7-mutant (C312S); format: cell-based, human; conditions: RNA PolII Ser5 phosphorylation, averaged over all measurements; for IC50: Homo sapiens, A549, A549 cells overexpressing CDK7-mutant (C312S), read-out: CDK7_A549 mutant hCDK7(pIC50) (converted)
In short: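 Readout was automated imaging of anti-phospho-Ser5 Rpb1 CTD immunofluorescence, with IC50 fitted to % control versus concentration. Cells were A549 stably overexpressing non-covalently targetable CDK7 C312S alongside wild-type, exposed to compound 3 h at 37 °C. DMSO and 10 μM reference compound served as controls.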

[3] = target: CDK7/cyclinH/MAT1 trimeric complex (Homo sapiens, UniProt P50613); assay: In vitro CDK7 assay, potency of irreversible covalent inhibitors (kinact/KI), coupled PK/LDH ADP readout at 340 nm; conditions: for Ki: CDK7 (20 nM enz.) (KI, μM), 20 nM enzyme; for kinact: read-out: CDK7 (20 nM enz.) (kinact, s^−1), 20 nM enzyme
[4] = read-out: CDK7 (20 nM enz.) (kinact/KI, M^−1*s^−1), 20 nM enzyme
[5] = read-out: CDK7 (20 nM enz.) (kobs/[I], M^−1*s^−1), 20 nM enzyme

CDK7/cyclinH/MAT1 trimeric complex, sequence (P50613 whole entry): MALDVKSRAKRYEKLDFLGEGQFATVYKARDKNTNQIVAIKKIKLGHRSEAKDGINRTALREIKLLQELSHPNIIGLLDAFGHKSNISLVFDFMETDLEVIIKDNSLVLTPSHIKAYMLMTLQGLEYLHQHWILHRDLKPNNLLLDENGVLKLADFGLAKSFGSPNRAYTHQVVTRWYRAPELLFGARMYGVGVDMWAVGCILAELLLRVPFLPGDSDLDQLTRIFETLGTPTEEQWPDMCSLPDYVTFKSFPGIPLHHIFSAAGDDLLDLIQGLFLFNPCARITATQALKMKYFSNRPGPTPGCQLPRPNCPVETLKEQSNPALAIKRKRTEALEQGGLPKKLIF
CDK7/cyclinH/MAT1 trimeric complex, sequence (P51946 whole entry partner): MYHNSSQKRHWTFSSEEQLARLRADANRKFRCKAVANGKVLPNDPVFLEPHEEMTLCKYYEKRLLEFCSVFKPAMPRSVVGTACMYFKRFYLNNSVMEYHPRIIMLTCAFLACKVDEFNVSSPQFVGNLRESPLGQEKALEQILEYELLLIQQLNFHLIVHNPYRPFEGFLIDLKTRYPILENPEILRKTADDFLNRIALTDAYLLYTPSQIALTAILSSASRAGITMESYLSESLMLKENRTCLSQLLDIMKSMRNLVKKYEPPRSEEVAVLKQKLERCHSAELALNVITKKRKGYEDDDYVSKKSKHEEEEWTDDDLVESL
CDK7/cyclinH/MAT1 trimeric complex, sequence (P51948 whole entry partner): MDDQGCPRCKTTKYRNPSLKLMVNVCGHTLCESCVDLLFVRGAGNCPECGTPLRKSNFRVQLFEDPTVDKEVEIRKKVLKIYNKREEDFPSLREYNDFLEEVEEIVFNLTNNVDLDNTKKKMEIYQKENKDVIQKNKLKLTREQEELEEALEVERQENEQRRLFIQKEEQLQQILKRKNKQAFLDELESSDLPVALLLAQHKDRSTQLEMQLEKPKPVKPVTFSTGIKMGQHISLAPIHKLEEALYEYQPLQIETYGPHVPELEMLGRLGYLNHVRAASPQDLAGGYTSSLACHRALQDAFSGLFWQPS

SMILES	IC50 [1]	melting point	CDK7_A549 mutant hCDK7(pIC50) ([2]; A549 cells overexpressing CDK7-mutant (C312S))	Ki [3]	kinact [3]	kinact/KI [3, 4]	IC50 [2]	kinact/KI [3, 5]
CC#CC(=O)N1CC(N2CCC(c3cc4c(c(C)n3)OCc3c(N5CCOCC5)ccnc3N4)CC2)C1 [Compound 279]	138 nM	178.5 °C	–	0.233 µM	2.96e-05 s⁻¹	127 M⁻¹ s⁻¹	> 10000 nM	–
C=CC(=O)N1CC(N2CCC(c3cc4c(c(C#N)n3)OCc3c(N5CCOCC5)ccnc3N4)CC2)C1 [Compound 306]	123 nM	256.7 °C	–	–	–	–	> 10000 nM	1170 M⁻¹ s⁻¹
CC#CC(=O)N1CC(N2CCC(c3cc4c(c(-c5ncc[nH]5)n3)OCc3c(N5CCOCC5)ccnc3N4)CC2)C1 [Compound 369]	245 nM	229.2 °C	–	0.0216 µM	3e-05 s⁻¹	1390 M⁻¹ s⁻¹	> 10000 nM	–
CC#CC(=O)N1CC(N2CCC(c3cc4c(c(C5CC5)n3)OCc3c(N5CCOCC5)ccnc3N4)CC2)C1 [Compound 403]	155 nM	174.8 °C	–	0.0766 µM	4.63e-05 s⁻¹	605 M⁻¹ s⁻¹	> 10000 nM	–

Second part, the molecule after the results:

IC50 [1]	melting point	CDK7_A549 mutant hCDK7(pIC50) ([2]; A549 cells overexpressing CDK7-mutant (C312S))	Ki [3]	kinact [3]	kinact/KI [3, 4]	IC50 [2]	kinact/KI [3, 5]	SMILES
64.6 nM	236.9 °C	<5.4	0.0574 µM	7.26e-05 s⁻¹	1260 M⁻¹ s⁻¹	–	–	C=CC(=O)N1CC(N2CCC(c3cc4c(c(C)n3)OCc3c(N5CCOCC5)ccnc3N4)CC2)C1 [Compound 173]
44.7 nM	189.9 °C	–	0.0212 µM	2.13e-05 s⁻¹	1010 M⁻¹ s⁻¹	> 10000 nM	–	C=CC(=O)N1CC(N2CCC(c3cc4c(c(C5CC5)n3)OCc3c(N5CCOCC5)ccnc3N4)CC2)C1 [Compound 272]
162 nM	195.5 °C	–	–	–	–	> 3980 nM	1740 M⁻¹ s⁻¹	C=CC(=O)N1CC(N2CCC(c3cc4c(c(-c5ncc[nH]5)n3)OCc3c(N5CCOCC5)ccnc3N4)CC2)C1 [Compound 378]

— patent US20240254138A1, “TRICYCLIC PYRIMIDINES AS CYCLIN-DEPENDENT KINASE 7 (CDK7) INHIBITORS” (JANSSEN PHARMACEUTICA NV, priority 2021, published 2024)
